In the supplement of paper PMC6045584:
± gives the standard deviation of the averaged measurements.

Columns and labels:
[1] = compound: CCn1c(C(=O)N(C2CC2)C2CC2)cc2c3c(ncn3C)c(Nc3cc(C)n(C)n3)nc21; assay: surviving fraction relative to DMSO-only wells; higher = less growth inhibition; details: exposure time: 5 days
How it was run: (§1)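 In 384-well plates, 250–500 log-phase tumour cells per well were given 24 hours before five days of continuous exposure to inhibitors at 0.5, 1, 5, 10, 50, 100, 500 and 1000 nM. Surviving fraction is luminescence from CellTiter-Glo, normalised to the median of wells containing DMSO alone. Reading took place after 10 minutes at room temperature.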

[2] = compound: CNC(=O)c1cc(Oc2ccc(NC(=O)Nc3ccc(Cl)c(C(F)(F)F)c3)cc2)ccn1 [SORAFENIB]; assay: as above; details: exposure time: 5 days
How it was run: as §1

Test System | surviving fraction ([1]; 0.5 nM) | surviving fraction ([1]; 1 nM) | surviving fraction ([1]; 5 nM) | surviving fraction ([1]; 10 nM) | surviving fraction ([1]; 50 nM) | surviving fraction ([1]; 100 nM) | surviving fraction ([1]; 500 nM) | surviving fraction ([1]; 1000 nM) | surviving fraction ([2]; 0.5 nM) | surviving fraction ([2]; 5 nM) | surviving fraction ([2]; 10 nM) | surviving fraction ([2]; 50 nM) | surviving fraction ([2]; 500 nM) | surviving fraction ([2]; 1000 nM) | surviving fraction ([2]; 1 nM) | surviving fraction ([2]; 100 nM)
LNCAP PROSTATE | 0.985 ± 0.1 | 0.852 ± 0.067 | 0.908 ± 0.19 | 0.861 ± 0.12 | 0.969 ± 0.032 | 0.915 ± 0.013 | 0.802 ± 0.03 | 0.806 ± 0.067 | 1.01 ± 0.084 | 1 ± 0.082 | 1.06 ± 0.08 | 0.902 ± 0.23 | 0.887 ± 0.12 | 0.853 ± 0.17 |  | 
CASKI CERVIX | 0.85 ± 0.039 | 0.932 ± 0.015 | 0.972 ± 0.055 | 0.946 ± 0.073 | 0.994 ± 0.049 | 1 ± 0.062 | 0.985 ± 0.029 | 1.04 ± 0.06 | 0.895 ± 0.04 | 0.983 ± 0.044 | 0.969 ± 0.019 | 1.13 ± 0.077 | 1.05 ± 0.019 | 0.865 ± 0.045 | 0.94 ± 0.054 | 1.13 ± 0.075
HU09 BONE | 1.06 ± 0.09 | 1.03 ± 0.11 | 1.09 ± 0.081 | 1.18 ± 0.22 | 1.25 ± 0.32 | 1 ± 0.072 | 0.915 ± 0.091 | 0.932 ± 0.064 | 0.95 ± 0.061 | 1.01 ± 0.099 | 0.95 ± 0.072 | 0.809 ± 0.061 | 0.512 ± 0.016 | 0.433 ± 0.02 | 0.951 ± 0.089 | 0.675 ± 0.063
MDAMB157 BREAST | 0.935 ± 0.14 | 0.923 ± 0.06 | 0.93 ± 0.042 | 0.935 ± 0.071 | 0.836 ± 0.059 | 0.89 ± 0.068 | 0.837 ± 0.059 | 0.829 ± 0.053 | 0.962 ± 0.016 | 0.984 ± 0.03 | 0.923 ± 0.046 |  | 0.963 ± 0.036 |  | 0.909 ± 0.064 | 1.01 ± 0.059
HCC78 LUNG | 0.942 ± 0.17 | 0.672 ± 0.3 | 0.745 ± 0.26 | 0.888 ± 0.17 | 0.774 ± 0.21 | 0.914 ± 0.089 | 0.707 ± 0.16 | 0.834 ± 0.2 | 0.864 ± 0.17 |  | 0.877 ± 0.085 | 1.02 ± 0.053 | 0.509 ± 0.068 | 0.435 ± 0.098 | 0.826 ± 0.023 | 
HCC1395 BREAST | 1.15 ± 0.067 | 1.06 ± 0.14 | 1.25 ± 0.057 | 1.16 ± 0.1 | 1.216 ± 0.0056 | 1.12 ± 0.21 | 0.973 ± 0.13 | 1.1 ± 0.16 | 1.11 ± 0.057 | 1.27 ± 0.049 | 1.16 ± 0.17 | 1.26 ± 0.034 | 1.18 ± 0.21 | 1.12 ± 0.048 |  | 1.24 ± 0.15
RDES SOFT TISSUE | 1.24 ± 0.11 | 1.2 ± 0.16 | 1.33 ± 0.071 | 1.27 ± 0.024 | 1.26 ± 0.12 | 1.19 ± 0.13 | 1.22 ± 0.13 | 1.39 ± 0.12 | 1.24 ± 0.085 | 1.18 ± 0.1 | 0.918 ± 0.1 | 1.15 ± 0.058 | 1.18 ± 0.13 | 1.09 ± 0.1 | 1.12 ± 0.098 | 1.24 ± 0.066
MDAMB231 BREAST | 0.965 ± 0.026 | 0.9749 ± 0.0034 | 0.975 ± 0.038 | 1.01 ± 0.011 | 1.01 ± 0.02 | 1.02 ± 0.014 | 0.926 ± 0.02 | 0.9 ± 0.025 | 0.99 ± 0.025 | 0.924 ± 0.036 | 0.905 ± 0.014 | 0.887 ± 0.014 |  | 0.929 ± 0.016 | 0.995 ± 0.014 | 0.936 ± 0.05
